Assay results published in patent US11377441B2, “Covalent inhibitors of KRAS” (Araxes Pharma LLC, priority 2017, dated 2022).

target: T1, KRAS G12C 1-169, his-tagged protein, GDP-loaded (Homo sapiens, UniProt P01116, G12C); assay: Biochemical assay: covalent modification of KRAS G12C measured by mass spectrometry (RapidFire/TOF or Q-Exactive); assay type: binding; conditions: covalent binding to (modification of) KRAS G12C after a ten minute incubation period
T1 construct: KRAS G12C 1-169, his-tagged protein, GDP-loaded
Procedure, shortened: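 GDP-loaded KRAS G12C 1-169 (his-tagged) at 2 μM or 0.5 μM in 20 mM Hepes, 150 mM NaCl, 1 mM MgCl2, incubated with compound at 100, 30 or 10 μM at room temperature for 10 min, 30 min, 2 h or 24 h, then quenched with formic acid. Intact-protein LC-MS, deconvolved; percent modification from modified versus unmodified protein.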

Structure (SMILES)	Binding %
C=CC(=O)N1C[C@H](C)N(c2nc(NC3CCN(C4CC4)CC3)nc3c(F)c(-c4c(C)ccc5[nH]nc(N)c45)c(Cl)cc23)C[C@H]1C [Compound 80, 1-((2R,5S)-4-(7-(3-amino-5-methyl-1H-indazol-4-yl)-6-chloro-2-(1-cyclopropylpiperidin-4-ylamino)-8-fluoroquinazolin-4-yl)-2,5-dimethylpiperazin-1-yl)prop-2-en-1-one]	+++ (+++ indicates binding activity greater than 80%)
C=CC(=O)N1C[C@H](C)N(c2nc(OCCN3CCOCC3)nc3c(F)c(-c4c(C)ccc5onc(N)c45)c(Cl)cc23)C[C@H]1C [Compound 81, 1-((2R,5S)-4-(7-(3-amino-5-methylbenzo[d]isoxazol-4-yl)-6-chloro-8-fluoro-2-(2-morpholinoethoxy)quina-zolin-4-yl)-2,5-dimethylpiperazin-1-yl)prop-2-en-1-one]	++ (++ indicates binding activity from 50 to 80%)
C=CC(=O)N1C[C@H](C)N(c2nc(N3CC(N(C)C)C3)nc3c(F)c(-c4c(C)ccc5[nH]c(=O)[nH]c45)c(Cl)cc23)C[C@H]1C [Compound 82, 4-(4-((2S,5R)-4-acryloyl-2,5-dimethylpiperazin-1-yl)-6-chloro-2-(3-(dimethylamino)azetidin-1-yl)-8-fluoroquinazolin-7-yl)-5-methyl-1H-benzo[d]imidazol-2(3H)-one]	+++ (+++ indicates binding activity greater than 80%)
C=CC(=O)N1C[C@H](C)N(c2nc(OCCN3CCC(F)(F)C3)nc3c(F)c(-c4c(C)ccc5onc(N)c45)c(Cl)cc23)C[C@H]1C [Compound 85, 1-((2R,5S)-4-(7-(3-amino-5-methylbenzo[d]isoxazol-4-yl)-6-chloro-2-(2-(3,3-difluoropyrrolidin-1-yl)ethoxy)-8-fluoroquinazolin-4-yl)-2,5-dimethylpiperazin-1-yl)prop-2-en-1-one]	+++ (+++ indicates binding activity greater than 80%)
C=CC(=O)N1C[C@H](C)N(c2nc(N3CC(N(C)C)C3)nc3c(F)c(-c4c(C)ccc5nn[nH]c45)c(Cl)cc23)C[C@H]1C [Compound 86, 1-((2R,5S)-4-(6-chloro-2-(3-(dimethylamino)azetidin-1-yl)-8-fluoro-7-(6-methyl-1H-benzo[d][1,2,3]triazol-7-yl)quinazolin-4-yl)-2,5-dimethylpiperazin-1-yl)prop-2-en-1-one]	+ (+ indicates binding activity greater than 0% and up to 50%)
C=CC(=O)N1C[C@H](C)N(c2nc(NCCc3ncccn3)nc3c(F)c(-c4c(C)ccc5onc(N)c45)c(Cl)cc23)C[C@H]1C [Compound 91, 1-((2R,5S)-4-(7-(3-amino-5-methylbenzo[d]isoxazol-4-yl)-6-chloro-8-fluoro-2-(2-(pyrimidin-2-yl)ethylamino)quinazo-lin-4-yl)-2,5-dimethylpiperazin-1-yl)prop-2-en-1-one]	+++ (+++ indicates binding activity greater than 80%)
C=CC(=O)N1C[C@H](C)N(c2nc(NCCN3CCOCC3)nc3c(F)c(-c4c(C)ccc5onc(N)c45)c(Cl)cc23)C[C@H]1C [Compound 92, 1-((2R,5S)-4-(7-(3-amino-5-methylbenzo[d]isoxazol-4-yl)-6-chloro-8-fluoro-2-(2-morpholinoethylamino)quinazolin-4-yl)-2,5-dimethylpiperazin-1-yl)prop-2-en-1-one]	++ (++ indicates binding activity from 50 to 80%)
C=CC(=O)N1C[C@H](C)N(c2nc(NCCC(=O)N3CCCC3)nc3c(F)c(-c4c(C)ccc5onc(N)c45)c(Cl)cc23)C[C@H]1C [Compound 93, 1-((2R,5S)-4-(7-(3-amino-5-methylbenzo[d]isoxazol-4-yl)-6-chloro-8-fluoro-2-(3-oxo-3-(pyrrolidin-1-yl)propylamino)quinazo-lin-4-yl)-2,5-dimethylpiperazin-1-yl)prop-2-en-1-one]	++ (++ indicates binding activity from 50 to 80%)
C=CC(=O)N1C[C@H](C)N(c2nc(N3CC(N(C)C)C3)nc3c(F)c(-c4c(C)ccc5[nH]nnc45)c(Cl)cc23)C[C@H]1C [Compound 94, 1-((2R,5S)-4-(6-chloro-2-(3-(dimethylamino)azetidin-1-yl)-8-fluoro-7-(5-methyl-1H-benzo[d][1,2,3]triazol-4-yl)quinazolin-4-yl)-2,5-dimethylpiperazin-1-yl)prop-2-en-1-one]	++ (++ indicates binding activity from 50 to 80%)
C=CC(=O)N1C[C@H](C)N(c2nc(N3CC(N(C)C)C3)nc3c(F)c(-c4c(C)ccc5onc(N)c45)c(Cl)cc23)C[C@H]1C [Compound 95, 1-((2R,5S)-4-((R)-7-(3-amino-5-methylbenzo[d]isoxazol-4-yl)-6-chloro-2-(3-(dimethylamino)azetidin-1-yl)-8-fluoroquinazolin-4-yl)-2,5-dimethylpiperazin-1-yl)prop-2-en-1-one]	+++ (+++ indicates binding activity greater than 80%)
C=CC(=O)N1C[C@H](C)N(c2nc(N3CC(N(C)C)C3)nc3c(F)c(-c4c(C)ccc5onc(Cl)c45)c(Cl)cc23)C[C@H]1C [Compound 99, 1-((2R,5S)-4-(6-chloro-7-(3-chloro-5-methylbenzo[d]isoxazol-4-yl)-2-(3-(dimethylamino)azetidin-1-yl)-8-fluoroquinazolin-4-yl)-2,5-dimethylpiperazin-1-yl)prop-2-en-1-one]	+ (+ indicates binding activity greater than 0% and up to 50%)
C=CC(=O)N1C[C@H](C)N(c2nc(OCCN3CC[C@@H](OC)C3)nc3c(F)c(-c4c(C)ccc5[nH]nc(N)c45)c(Cl)cc23)C[C@H]1C [Compound 100, 1-((2R,5S)-4-(7-(3-amino-5-methyl-1H-indazol-4-yl)-6-chloro-8-fluoro-2-(2-((R)-3-methoxypyrrolidin-1-yl)ethoxy)quinazolin-4-yl)-2,5-dimethylpiperazin-1-yl)prop-2-en-1-one]	+++ (+++ indicates binding activity greater than 80%)
C=CC(=O)N1C[C@H](C)N(c2nc(N3CC([N+](C)(C)C)C3)nc3c(F)c(-c4c(C)ccc5cnn(C)c45)c(Cl)cc23)C[C@H]1C [Compound 106, 1-((R)-4-((2S,5R)-4-acryloyl-2,5-dimethylpiperazin-1-yl)-6-chloro-7-(1,6-dimethyl-1H-indazol-7-yl)-8-fluoroquinazolin-2-yl)-N,N,N-trimethylazetidin-3-aminium]	+++ (+++ indicates binding activity greater than 80%)
C=CC(=O)N1C[C@H](C)N(c2nc(N3CC(N(C)C)C3)nc3c(F)c(-c4c(C)ccc5[nH]nc(C)c45)c(Cl)cc23)C[C@H]1C [Compound 107, 1-((2R,5S)-4-(6-chloro-7-(3,5-dimethyl-1H-indazol-4-yl)-2-(3-(dimethylamino)azetidin-1-yl)-8-fluoroquinazolin-4-yl)-2,5-dimethylpiperazin-1-yl)prop-2-en-1-one]	+ (+ indicates binding activity greater than 0% and up to 50%)
C=CC(=O)N1C[C@H](C)N(c2nc(OCCN3CC[C@@H](F)C3)nc3c(F)c(-c4c(C)ccc5[nH]nc(N)c45)c(Cl)cc23)C[C@H]1C [Compound 108, 1-((2R,5S)-4-(7-(3-amino-5-methyl-1H-indazol-4-yl)-6-chloro-8-fluoro-2-(2-((R)-3-fluoropyrrolidin-1-yl)ethoxy)quinazolin-4-yl)-2,5-dimethylpiperazin-1-yl)prop-2-en-1-one]	+++ (+++ indicates binding activity greater than 80%)
C=CC(=O)N1C[C@H](C)N(c2nc(OCCN3CC[C@H](F)C3)nc3c(F)c(-c4c(C)ccc5[nH]nc(N)c45)c(Cl)cc23)C[C@H]1C [Compound 109, 1-((2R,5S)-4-(7-(3-amino-5-methyl-1H-indazol-4-yl)-6-chloro-8-fluoro-2-(2-((S)-3-fluoropyrrolidin-1-yl)ethoxy)quinazolin-4-yl)-2,5-dimethylpiperazin-1-yl)prop-2-en-1-one]	+++ (+++ indicates binding activity greater than 80%)
C=CC(=O)N1C[C@H](C)N(c2nc(OCCN3CCCC(F)(F)C3)nc3c(F)c(-c4c(C)ccc5[nH]nc(N)c45)c(Cl)cc23)C[C@H]1C [Compound 114, 1-((2R,5S)-4-(7-(3-amino-5-methyl-1H-indazol-4-yl)-6-chloro-2-(2-(3,3-difluoropiperidin-1-yl)ethoxy)-8-fluoroquinazolin-4-yl)-2,5-dimethylpiperazin-1-yl)prop-2-en-1-one]	+++ (+++ indicates binding activity greater than 80%)
C=CC(=O)N1C[C@H](C)N(c2nc(N3CC(N(C)C)C3)nc3c(F)c(-c4c(C)ccc5[nH]nc(C(F)(F)F)c45)c(Cl)cc23)C[C@H]1C [Compound 115, 1-((2R,5S)-4-(6-chloro-2-(3-(dimethylamino)azetidin-1-yl)-8-fluoro-7-(5-methyl-3-(trifluoromethyl)-1H-indazol-4-yl)quinazolin-4-yl)-2,5-dimethylpiperazin-1-yl)prop-2-en-1-one]	+ (+ indicates binding activity greater than 0% and up to 50%)
C=CC(=O)N1C[C@H](C)N(c2nc(OCCN3CCC(F)(F)CC3)nc3c(F)c(-c4c(C)ccc5[nH]nc(N)c45)c(Cl)cc23)C[C@H]1C [Compound 118, 1-((2R,5S)-4-(7-(3-amino-5-methyl-1H-indazol-4-yl)-6-chloro-2-(2-(4,4-difluoropiperidin-1-yl)ethoxy)-8-fluoroquinazolin-4-yl)-2,5-dimethylpiperazin-1-yl)prop-2-en-1-one]	+++ (+++ indicates binding activity greater than 80%)
C=CC(=O)N1C[C@H](C)N(c2nc(N3CC(N(C)C)C3)nc3c(F)c(-c4c(C)ccc5[nH]nc(NC(C)=O)c45)c(Cl)cc23)C[C@H]1C [Compound 119, N-(4-(4-((2S,5R)-4-acryloyl-2,5-dimethylpiperazin-1-yl)-6-chloro-2-(3-(dimethylamino)azetidin-1-yl)-8-fluoroquinazolin-7-yl)-5-methyl-1H-indazol-3-yl)acetamide]	+ (+ indicates binding activity greater than 0% and up to 50%)
